Experimental data from ChEMBL document CHEMBL1140236, “Aminoalkoxybenzyl pyrrolidines as novel human urotensin-II receptor antagonists” (Bioorg Med Chem Lett, 2005).

Assays:
Urotensin-2 receptor [1] = biological target: T1, Urotensin-2 receptor (Homo sapiens, UniProt Q9UKP6); assay: Binding affinity using [125I]hU-II radioligand binding assay in HEK293 cell membranes expressing human Urotensin 2 receptor
T1 sequence (Q9UKP6 whole entry): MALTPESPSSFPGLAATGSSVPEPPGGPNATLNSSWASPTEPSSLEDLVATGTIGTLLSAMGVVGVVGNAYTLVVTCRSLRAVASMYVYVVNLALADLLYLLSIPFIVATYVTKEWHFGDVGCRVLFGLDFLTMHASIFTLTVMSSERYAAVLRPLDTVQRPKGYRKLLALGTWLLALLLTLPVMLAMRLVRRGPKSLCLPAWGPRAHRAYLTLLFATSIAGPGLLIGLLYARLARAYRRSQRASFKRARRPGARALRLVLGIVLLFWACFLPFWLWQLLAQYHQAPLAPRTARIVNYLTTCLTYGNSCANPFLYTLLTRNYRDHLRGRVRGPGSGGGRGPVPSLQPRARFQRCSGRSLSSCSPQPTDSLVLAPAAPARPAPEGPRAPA

Urotensin-2 receptor [2] = biological target: T1, Urotensin-2 receptor; assay: (§1) Inhibition of hU-II-mediated [Ca2+]i mobilization in HEK293 cells expressing human recombinant Urotensin 2 receptor in FLIPR assay; type: cell-based
Urotensin-2 receptor [3] = biological target: T2, Urotensin-2 receptor (Macaca mulatta, UniProt Q8HYC3); assay: Binding affinity for monkey urotensin-2 receptor
T2 sequence (Q8HYC3 whole entry): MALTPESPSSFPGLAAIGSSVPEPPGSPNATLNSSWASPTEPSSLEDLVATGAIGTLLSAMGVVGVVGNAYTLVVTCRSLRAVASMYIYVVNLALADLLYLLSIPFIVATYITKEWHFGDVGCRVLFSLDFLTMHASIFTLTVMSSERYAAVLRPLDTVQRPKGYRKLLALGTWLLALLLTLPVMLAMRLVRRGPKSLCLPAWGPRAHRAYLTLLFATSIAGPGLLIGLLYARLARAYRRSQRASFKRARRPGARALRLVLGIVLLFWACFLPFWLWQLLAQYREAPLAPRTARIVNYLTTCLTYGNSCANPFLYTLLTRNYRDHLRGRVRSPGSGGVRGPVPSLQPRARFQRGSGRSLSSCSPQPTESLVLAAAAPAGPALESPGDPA

Urotensin-2 receptor [4] = biological target: T3, Urotensin-2 receptor (Rattus norvegicus, UniProt P49684); assay: Binding affinity for rat urotensin-2 receptor
T3 sequence (P49684 whole entry): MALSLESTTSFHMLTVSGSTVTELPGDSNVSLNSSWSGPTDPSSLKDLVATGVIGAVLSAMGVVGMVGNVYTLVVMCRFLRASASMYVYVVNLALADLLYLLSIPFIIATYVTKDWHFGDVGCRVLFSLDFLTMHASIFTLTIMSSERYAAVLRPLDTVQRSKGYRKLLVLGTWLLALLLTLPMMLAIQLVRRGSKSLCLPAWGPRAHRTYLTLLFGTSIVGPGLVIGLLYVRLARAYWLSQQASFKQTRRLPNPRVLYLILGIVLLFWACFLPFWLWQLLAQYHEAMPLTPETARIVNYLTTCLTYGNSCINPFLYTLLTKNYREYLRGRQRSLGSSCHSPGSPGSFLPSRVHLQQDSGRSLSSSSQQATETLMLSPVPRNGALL

Urotensin-2 receptor [5] = biological target: T1, Urotensin-2 receptor; assay: as §1; type: functional, cell-based

Row | Ki (Urotensin-2 receptor [1]) [nM] | Structure (SMILES) | also measured
1 | 2510 | CN(C)CCCOc1ccc(CN2CC[C@H](NC(=O)c3ccc4c(c3)OCO4)C2)cc1 | 
2 | 794 | CC(C)[C@H](NC(=O)c1ccc(Cl)c(Cl)c1)C(=O)N[C@H]1CCN(Cc2ccc(OCCCN(C)C)cc2)C1 | 
3 | > 10000 | CN(C)CCCOc1ccc(CN2CC[C@H](NC(=O)c3ccncc3)C2)cc1 | 
4 | 2000 | CN(C)CCCOc1ccc(CN2CC[C@H](NC(=O)c3cc(Cl)cc(Cl)c3)C2)cc1 | 
5 | > 10000 | CN(C)CCCOc1ccc(CN2CC[C@H](NC(=O)c3ccco3)C2)cc1 | 
6 | > 10000 | COc1ccc(C(=O)N[C@H]2CCN(Cc3ccc(OCCCN(C)C)cc3)C2)cc1OC | 
7 | > 10000 | CN(C)CCCOc1ccc(CN2CC[C@H](NC(=O)c3ccc(-c4ccccc4)cc3)C2)cc1 | 
8 | 1000 | CC(C)C[C@H](NC(=O)Nc1ccccc1)C(=O)N[C@H]1CCN(Cc2ccc(OCCCN(C)C)cc2)C1 | 
9 | 501 | CC(C)C[C@H](NC(=O)c1cc2ccccc2[nH]1)C(=O)N[C@H]1CCN(Cc2ccc(OCCCN(C)C)cc2)C1 | 
10 | 200 | CC(C)C[C@H](NC(=O)c1ccc(Br)cc1)C(=O)N[C@H]1CCN(Cc2ccc(OCCCN(C)C)cc2)C1 | 
11 | > 10000 | CN(C)CCCOc1ccc(CN2CC[C@H](NC(=O)CNC(=O)c3ccc(Cl)c(Cl)c3)C2)cc1 | 
12 | > 10000 | Cc1ccc(C(=O)N[C@H]2CCN(Cc3ccc(OCCCN(C)C)cc3)C2)cc1C | 
13 | 126 | CC(C)C[C@H](NC(=O)c1ccc(Cl)c(Cl)c1)C(=O)N[C@H]1CCN(Cc2ccc(OCCCN(C)C)cc2)C1 | 
14 | 501 | CC(C)C[C@H](NC(=O)c1ccc2c(c1)OCO2)C(=O)N[C@H]1CCN(Cc2ccc(OCCCN(C)C)cc2)C1 | 
15 | > 10000 | CN(C)CCCOc1ccc(CN2CC[C@H](NC(=O)c3cccs3)C2)cc1 | 
16 | > 10000 | CN(C)CCCOc1ccc(CN2CC[C@H](NC(=O)c3ccc(C(F)(F)F)cc3)C2)cc1 | 
17 | > 10000 | CN(C)CCCOc1ccc(CN2CC[C@H](NC(=O)c3ccc(C#N)cc3)C2)cc1 | 
18 | 631 | CC(C)C[C@H](NC(=O)c1ccc2ccccc2n1)C(=O)N[C@H]1CCN(Cc2ccc(OCCCN(C)C)cc2)C1 | 
19 | 398 | CC(C)C[C@H](NC(=O)Cc1ccc2c(c1)OCO2)C(=O)N[C@H]1CCN(Cc2ccc(OCCCN(C)C)cc2)C1 | 
20 | 631 | Cc1cc(C(=O)N[C@H]2CCN(Cc3ccc(OCCCN(C)C)cc3)C2)ccc1Cl | 

Row | Ki (Urotensin-2 receptor [1]) [nM] | Structure (SMILES) | also measured
21 | > 10000 | CN(C)CCCOc1ccc(CN2CC[C@H](NC(=O)c3ccc4ccccc4c3)C2)cc1 | 
22 | 316 | CN(C)CCCOc1ccc(CN2CC[C@H](NC(=O)c3ccc(Br)cc3)C2)cc1 | 
23 | 631 | Cc1cc(C(=O)N[C@H]2CCN(Cc3ccc(OCCCN(C)C)cc3)C2)ccc1Br | 
24 | 501 | CC(C)C[C@H](NC(=O)c1ccccc1)C(=O)N[C@H]1CCN(Cc2ccc(OCCCN(C)C)cc2)C1 | 
25 | 398 | CC(C)C[C@H](NC(=O)c1cccs1)C(=O)N[C@H]1CCN(Cc2ccc(OCCCN(C)C)cc2)C1 | 
26 | 200 | CN(C)CCCOc1ccc(CN2CC[C@H](NC(=O)c3ccc(Cl)c(Cl)c3)C2)cc1 | IC50 (Urotensin-2 receptor [2]): 158 nM; Ki (Urotensin-2 receptor [3]): 251 nM; Ki (Urotensin-2 receptor [4]): 3160 nM
27 | > 10000 | CN(C)CCCOc1ccc(CN2CC[C@H](NC(=O)[C@H](CCC(=O)O)NC(=O)c3ccc(Cl)c(Cl)c3)C2)cc1 | 
28 | 398 | CN(C)CCCOc1ccc(CN2CC[C@H](NC(=O)[C@H](Cc3ccccc3)NC(=O)c3ccc(Cl)c(Cl)c3)C2)cc1 | 
29 | > 10000 | CN(C)CCCOc1ccc(CN2CC[C@H](NC(=O)[C@H](CCCCN)NC(=O)c3ccc(Cl)c(Cl)c3)C2)cc1 | 
30 | 631 | CC(C)C[C@H](NC(=O)c1ccco1)C(=O)N[C@H]1CCN(Cc2ccc(OCCCN(C)C)cc2)C1 | 
31 | 2510 | CN(C)CCCOc1ccc(CN2CC[C@H](NC(=O)c3ccccc3)C2)cc1 | 
32 | 2510 | CC(=O)N[C@@H](CC(C)C)C(=O)N[C@H]1CCN(Cc2ccc(OCCCN(C)C)cc2)C1 | 
33 | 2510 | CN(C)CCCOc1ccc(CN2CC[C@H](NC(=O)c3cc4ccccc4o3)C2)cc1 | 
34 | 2000 | CC(C)C[C@H](NC(=O)c1ccncc1)C(=O)N[C@H]1CCN(Cc2ccc(OCCCN(C)C)cc2)C1 | 
35 | 3160 | CC(C)C[C@@H](NC(=O)c1cc2ccccc2o1)C(=O)NC1CCN(Cc2ccc(OCCCN(C)C)cc2)C1 (single isomer, unassigned) | 
36 | 126 | CC(C)C[C@H](NC(=O)c1cc2ccccc2s1)C(=O)NC1CCN(Cc2ccc(OCCCN(C)C)cc2)C1 (single isomer, unassigned; 2a) | IC50 (Urotensin-2 receptor [5]): 631 nM
37 | > 10000 | CC(C)C[C@H](NC(=O)c1cc2ccccc2s1)C(=O)NC1CCN(Cc2ccc(OCCCN(C)C)cc2)C1 (single isomer, unassigned; 2b) | 
38 | 158 | CC(C)C[C@H](NC(=O)c1cc2ccccc2o1)C(=O)NC1CCN(Cc2ccc(OCCCN(C)C)cc2)C1 (single isomer, unassigned; 2c) | 
39 | > 10000 | CC(C)C[C@H](NC(=O)c1cc2ccccc2o1)C(=O)NC1CCN(Cc2ccc(OCCCN(C)C)cc2)C1 (single isomer, unassigned; 2d) | 

Row | Structure (SMILES) | Ki (Urotensin-2 receptor [1]) [nM] | also measured
40 | CC(=O)N[C@H]1CCN(Cc2ccc(OCCCN(C)C)cc2)C1 | > 10000 | 
41 | CC(C)C[C@H](NC(=O)Oc1ccccc1)C(=O)N[C@H]1CCN(Cc2ccc(OCCCN(C)C)cc2)C1 | 251 | 
